Species: Rattus norvegicus
Assay: Open TG-GATES - Regimen: Single
Type: toxicity, organism-based, Sprague-Dawley
Parameters: regimen Single, gender Male, age 6 weeks
Conditions: in vivo, po, route gavage; for TP / gamma-GTP / ALP / AST / BUN / CRE / Ca / Cl / DBIL / GLC / IP / K / LDH / Na / PL / RALB / TBIL / TC / TG: tissue Plasma; for APTT / Bas / Eos / Ht / MCH / MCHC / MCV / Mono / PT / Plat / RBC / Ret / WBC / Fbg: tissue Blood; for KIDNEY_L / KIDNEY_R / KIDNEY_TOTAL: tissue Kidney; for LIVER: tissue Liver
[1] = 200 mg/kg, 3 h, dose level Middle
[2] = 200 mg/kg, 6 h, dose level Middle
[3] = 200 mg/kg, 9 h, dose level Middle
[4] = 200 mg/kg, 24 h, dose level Middle

SMILES: CC(=O)Nc1nnc(S(N)(=O)=O)s1 [ACETAZOLAMIDE]
- TP (60 mg/kg, 24 h, dose level Low): 5.5 g/dL
- gamma-GTP (60 mg/kg, 24 h, dose level Low): 1.2 IU/L
- TERMINAL_BW [1]: 208.6 g
- APTT [1]: 21.4 s
- Bas [1]: 0%
- Eos [1]: 1%
- Ht [1]: 42%
- MCH [1]: 21 pg
- MCHC [1]: 31.4%
- MCV [1]: 66.7 fL
- Mono [1]: 2.2%
- PT [1]: 16.8 s
- Plat [1]: 124.3 x10_4/uL
- RBC [1]: 629.8 x10_4/ul
- Ret [1]: 8.5%
- WBC [1]: 67.2 x10_2/uL
- KIDNEY_L [1]: 0.9 g
- KIDNEY_R [1]: 0.9 g
- KIDNEY_TOTAL [1]: 1.8 g
- LIVER [1]: 9.2 g
- ALP [1]: 1675.4 IU/L
- AST [1]: 71.2 IU/L
- BUN [1]: 12.2 mg/dL
- CRE [1]: 0.2 mg/dL
- Ca [1]: 11.1 mg/dL
- Cl [1]: 111.2 meq/L
- DBIL [1]: 0 mg/dL
- GLC [1]: 186.4 mg/dL
- IP [1]: 10.2 mg/dL
- K [1]: 3.7 meq/L
- LDH [1]: 191.6 IU/L
- Na [1]: 140.8 meq/L
- PL [1]: 143 mg/dL
- RALB [1]: 3.4 g/dL
- TBIL [1]: 0.012 mg/dL
- TC [1]: 80.4 mg/dL
- TP [1]: 6 g/dL
- gamma-GTP [1]: 1.2 IU/L
- TERMINAL_BW [2]: 207.7 g
- APTT [2]: 22.7 s
- Bas [2]: 0%
- Eos [2]: 1%
- Fbg [2]: 356 mg/dL
- Ht [2]: 42%
- MCH [2]: 21.2 pg
- MCHC [2]: 31.2%
- MCV [2]: 68 fL
- Mono [2]: 2.8%
- PT [2]: 16.9 s
- Plat [2]: 108.6 x10_4/uL
- RBC [2]: 617.6 x10_4/ul
- Ret [2]: 8.8%
- WBC [2]: 85 x10_2/uL
- KIDNEY_L [2]: 1 g
- KIDNEY_R [2]: 1 g
- KIDNEY_TOTAL [2]: 2 g
- LIVER [2]: 8.8 g
- ALP [2]: 1625.8 IU/L
- AST [2]: 71.2 IU/L
- BUN [2]: 11.6 mg/dL
- CRE [2]: 0.2 mg/dL
- Ca [2]: 11.1 mg/dL
- Cl [2]: 113.6 meq/L
- DBIL [2]: 0 mg/dL
- GLC [2]: 186.8 mg/dL
- IP [2]: 9.7 mg/dL
- K [2]: 4 meq/L
- LDH [2]: 180.8 IU/L
- Na [2]: 140 meq/L
- PL [2]: 135.8 mg/dL
- RALB [2]: 3.4 g/dL
- TBIL [2]: 0.024 mg/dL
- TC [2]: 84.2 mg/dL
- TG [2]: 21.4 mg/dL
- TP [2]: 6 g/dL
- gamma-GTP [2]: 1.6 IU/L
- TERMINAL_BW [3]: 200 g
- APTT [3]: 22.9 s
- Bas [3]: 0%
- Eos [3]: 0.8%
- Fbg [3]: 349.4 mg/dL
- Ht [3]: 43.2%
- MCH [3]: 20.8 pg
- MCHC [3]: 31%
- MCV [3]: 67.3 fL
- Mono [3]: 1.8%
- PT [3]: 16.3 s
- Plat [3]: 127.1 x10_4/uL
- RBC [3]: 644 x10_4/ul
- Ret [3]: 8.8%
- WBC [3]: 68.1 x10_2/uL
- KIDNEY_L [3]: 0.9 g
- KIDNEY_R [3]: 1 g
- KIDNEY_TOTAL [3]: 1.9 g
- LIVER [3]: 7.8 g
- ALP [3]: 1777.2 IU/L
- AST [3]: 61.6 IU/L
- BUN [3]: 13.2 mg/dL
- CRE [3]: 0.2 mg/dL
- Ca [3]: 11 mg/dL
- Cl [3]: 114.4 meq/L
- DBIL [3]: 0 mg/dL
- GLC [3]: 175 mg/dL
- IP [3]: 9.7 mg/dL
- K [3]: 3.8 meq/L
- LDH [3]: 182.6 IU/L
- Na [3]: 139 meq/L
- PL [3]: 122.4 mg/dL
- RALB [3]: 3.5 g/dL
- TBIL [3]: 0.026 mg/dL
- TC [3]: 72.4 mg/dL
- TG [3]: 13.8 mg/dL
- TP [3]: 6.1 g/dL
- gamma-GTP [3]: 1.4 IU/L
- TERMINAL_BW [4]: 205.9 g
- APTT [4]: 21.2 s
- Bas [4]: 0%
- Eos [4]: 1%
- Fbg [4]: 349 mg/dL
- Ht [4]: 40.8%
- MCH [4]: 20.9 pg
- MCV [4]: 62.9 fL
- Mono [4]: 2%
- PT [4]: 16.8 s
- Plat [4]: 132.1 x10_4/uL
- RBC [4]: 649.2 x10_4/ul
- Ret [4]: 8.1%
- WBC [4]: 101.2 x10_2/uL
- KIDNEY_L [4]: 1 g
- KIDNEY_R [4]: 1 g
- KIDNEY_TOTAL [4]: 1.9 g
- LIVER [4]: 8.5 g
- ALP [4]: 1929.2 IU/L
- AST [4]: 53.6 IU/L
- BUN [4]: 21.6 mg/dL
- CRE [4]: 0.2 mg/dL
- Ca [4]: 10.8 mg/dL
- Cl [4]: 114.4 meq/L
- DBIL [4]: 0 mg/dL
- GLC [4]: 189.6 mg/dL
- IP [4]: 7.7 mg/dL
- K [4]: 3.6 meq/L
- LDH [4]: 222.4 IU/L
- Na [4]: 142.2 meq/L
- PL [4]: 136.2 mg/dL
- RALB [4]: 3.2 g/dL
- TBIL [4]: 0.016 mg/dL
- TC [4]: 86.4 mg/dL
- TG [4]: 44.6 mg/dL
